# From article PMC6930223 (Scientific Reports, 2019)
# Target: hERG1a/1b current (Homo sapiens, UniProt Q12809)
# Procedure: All working solutions were sterile-filtered, stored at −20 °C and thawed to room temperature before use.
# Prior to electrophysiology study, the HEK293-hERG1a/1b cells were first grown in complete medium without selection antibiotics for 6 days. Approximately 5.0 × 10^5 cells were then plated onto an uncoated 96-mm cell culture dish for a maximum of 3 days. […] The cell suspension was then transferred into a 15-ml polypropylene tube and centrifuged at 100 × g for 3 min. Subsequently, the cell pellet was resuspended in extracellular solution to obtain a final density of 2 × 10^6–3 × 10^6 cells/ml and incubated on ice for 20 min to allow cell recovery. The electrophysiology studies were performed using NPC®-1 chips (Nanion Technologies, Germany) and Port-a-Patch system (Nanion Technologies, Germany) following manufacturer’s instructions, within the next 2 h. For characterization and determination of the hERG1a/1b current inhibition, a series of voltage protocols were applied as published previously.
# The hERG1a/1b current was recorded in cells achieving whole-cell configuration. Briefly, a single cell was first held at −80 mV, the theoretical cardiac resting membrane potential, on the aperture of the NPC-1 chip (Nanion Technologies, Germany). To characterize the I-V relationship, the cell was depolarized to test potentials ranging from −60 mV to +50 mV for 4 s in […], followed by a 5-s step to −50 mV before returning to −80mV.
# To determine the pharmacological effects of the HEK293-hERG1a/1b cells, the cells were perfused with test compound solutions using an external perfusion system. […] The mean of six successive Itail was recorded for each test concentration. Four independent experiments were conducted to derive the dose-response curve.
compound,measurement,value
"CNCCC(Oc1ccc(C(F)(F)F)cc1)c1ccccc1 (stereo not shown) [fluoxetine, reference compound]",Hill coefficient (h),1.19
